Drawing on patent publication US20120238549A1, “Nuclear Hormone Receptor Modulators” (ABBOTT LABORATORIES, priority 2011, published 2012), this text covers IC50 for 16 compounds.

The target of the test is T1, Glucocorticoid Receptor (GR) (Homo sapiens, UniProt P04150).
T1 construct: purchased Invitrogen P2893
T1 sequence (P04150 1-777): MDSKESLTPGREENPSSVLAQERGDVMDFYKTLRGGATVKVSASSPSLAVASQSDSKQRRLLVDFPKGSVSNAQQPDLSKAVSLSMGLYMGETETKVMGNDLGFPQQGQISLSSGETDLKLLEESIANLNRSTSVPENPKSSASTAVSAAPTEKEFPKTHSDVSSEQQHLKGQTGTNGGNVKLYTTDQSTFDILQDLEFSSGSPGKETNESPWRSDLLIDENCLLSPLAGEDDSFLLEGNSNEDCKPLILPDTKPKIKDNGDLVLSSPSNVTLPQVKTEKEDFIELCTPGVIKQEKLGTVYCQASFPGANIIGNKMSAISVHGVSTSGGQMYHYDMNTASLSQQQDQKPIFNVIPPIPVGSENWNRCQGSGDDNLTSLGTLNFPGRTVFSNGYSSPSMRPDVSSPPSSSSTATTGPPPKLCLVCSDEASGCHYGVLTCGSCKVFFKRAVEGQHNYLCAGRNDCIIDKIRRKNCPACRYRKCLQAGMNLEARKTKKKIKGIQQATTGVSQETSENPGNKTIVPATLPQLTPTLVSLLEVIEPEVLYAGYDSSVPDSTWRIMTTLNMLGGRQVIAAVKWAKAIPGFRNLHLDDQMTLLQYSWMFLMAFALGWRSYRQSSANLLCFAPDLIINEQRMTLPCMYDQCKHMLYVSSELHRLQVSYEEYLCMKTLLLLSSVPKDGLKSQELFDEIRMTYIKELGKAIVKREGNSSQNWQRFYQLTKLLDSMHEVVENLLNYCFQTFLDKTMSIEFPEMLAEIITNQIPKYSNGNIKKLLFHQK
Briefly: GR Florescence Polarization Assay (PolarScreen Glucocorticoid Receptor Competitor Assay, Red). Conditions: Fluorescense polarization binding ranges; competition with fluorescent glucocorticoid, incubated overnight at 4° C. The method, boiled down: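 Competitive fluorescence polarization using fluorescent glucocorticoid tracer and human GR in kit buffer. Compounds serially diluted 1:4 in DMSO, incubated with tracer and GR overnight at 4 °C before polarization read.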

What is called IC50 is the concentration needed to halve the response being measured. Lower therefore signals greater potency.

For the compound `CCC[C@@]1(O)CC[C@@]2(CC)c3ccc(C(=O)Nc4cccnc4C)cc3C=CC[C@H]2C1` (racemic) [Example 128, (7aS,9R,11aR)-11a-Ethyl-9-hydroxy-9-propyl-7a,8,9,10,11,11a-hexahydro-7H-dibenzo[a,c]cycloheptene-3-carboxylic acid (2-methyl-pyridin-3-yl)-amide compound with (7aR,9S,11aS)-11a-ethyl-9-hydroxy-9-propyl-7a,8,9,10,11,11a-hexahydro-7H-dibenzo[a,c]cycloheptene-3-carboxylic acid (2-methyl-pyridin-3-yl)-amide], the half-inhibitory concentration (IC50) is under 0.1 µM.

Regarding `CC[C@@]1(O)CC[C@]2(Cc3ccccc3)c3nn(C)cc3CCC[C@@H]2C1.CC[C@]1(O)CC[C@@]2(Cc3ccccc3)c3nn(C)cc3CCC[C@H]2C1` [Example 41, (6aS,8S,10aS)-10a-benzyl-8-ethyl-2-methyl-2,4,5,6,6a,7,8,9,10,10a-decahydro-1,2-diaza-benzo[e]azulen-8-ol; compound with (6aR,8R,10aR)-10a-benzyl-8-ethyl-2-methyl-2,4,5,6,6a,7,8,9,10,10a-decahydro-1,2-diaza-benzo[e]azulen-8-ol], the IC50 was over 10 µM.

On to `CC[C@]12C[C@H](O)[C@@](O)(c3ccccc3)C[C@H]1CCCc1cc(C(=O)Nc3cccnc3C)ccc12` (single isomer, unassigned) [Example 125], for which the half-inhibitory concentration (IC50) was under 0.1 µM.

`Cc1ncccc1NC(=O)c1ccc2c(c1)COC(=O)[C@H]1CC(=O)CC[C@@]21Cc1ccccc1` [Example 110, (7aS,11aS)-11a-Benzyl-N-(2-methylpyridin-3-yl)-7,9-dioxo-5,7,7a,8,9,10,11,11a-octahydrodibenzo[c,e]oxepine-3-carboxamide] gave a concentration for half-maximal inhibition (IC50) of over 10 µM.

Compound `CC[C@@]1(O)CC[C@@]2(Cc3ccccc3)c3ccc(C(=O)Nc4cccnc4C)cc3CC(=O)C[C@H]2C1` [Example 114, (7aR,9R,11aS)-11a-Benzyl-9-ethyl-9-hydroxy-6-oxo-6,7,7a,8,9,10,11,11a-octahydro-5H-dibenzo[a,c]cycloheptene-3-carboxylic acid (2-methyl-pyridin-3-yl)-amide] registered a half-maximal inhibitory concentration (IC50) of under 0.1 µM.

In turn, `Cc1ncccc1NC(=O)c1ccc2c(c1)CN(C)C[C@H]1C[C@@H](O)CC[C@@]21Cc1ccccc1` [Example 109, (3S,4aS,11bS)-11b-benzyl-3-hydroxy-6-methyl-N-(2-methylpyridin-3-yl)-2,3,4,4a,5,6,7,11b-octahydro-1H-dibenzo[c,e]azepine-9-carboxamide] had a concentration for half-maximal inhibition (IC50) of over 10 µM.

`Cc1ncccc1NC(=O)c1ccc2c(c1)CCC[C@@H]1CC(=O)CC[C@@]21Cc1ccccc1` (racemic) [Example 8, (7aR,11aS)-11a-Benzyl-9-oxo-6,7,7a,8,9,10,11,11a-octahydro-5H-dibenzo[a,c]cycloheptene-3-carboxylic acid (2-methyl-pyridin-3-yl)-amide; compound with (7aS,11aR)-11a-benzyl-9-oxo-6,7,7a,8,9,10,11,11a-octahydro-5H-dibenzo[a,c]cycloheptene-3-carboxylic acid (2-methyl-pyridin-3-yl)-amide] registered a concentration for half-maximal inhibition (IC50) of under 0.1 µM.

Regarding `CC[C@@]1(O)CC[C@@]2(Cc3ccccc3)c3ccc(C(=O)Nc4ccc(C)nc4C)cc3CCC[C@H]2C1` [Example 72], the IC50 is under 0.1 µM.

`CC[C@@]1(O)CC[C@@]2(Cc3ccccc3)c3ccc(C(=O)Nc4cccnc4C)cc3C(=O)N(C)C[C@@H]2C1` [Example 113, (3R,4aR,11bS)-11b-Benzyl-3-ethyl-3-hydroxy-6-methyl-N-(2-methylpyridin-3-yl)-7-oxo-2,3,4,4a,5,6,7,11b-octahydro-1H-dibenzo[c,e]azepine-9-carboxamide] showed an IC50 of 1 to 10 µM.

Compound `CCC[C@@]1(O)CC[C@@]2(CC)c3ccc(C(=O)Nc4cccnc4C)cc3OCC[C@H]2C1` (racemic) [Example 119, (7aS,9R,11aR)-11a-Ethyl-9-hydroxy-N-(2-methylpyridin-3-yl)-9-propyl-6,7,7a,8,9,10,11,11a-octahydrodibenzo[b,d]oxepine-3-carboxamide; compound with (7aR,9S,11aS)-11a-ethyl-9-hydroxy-N-(2-methylpyridin-3-yl)-9-propyl-6,7,7a,8,9,10,11,11a-octahydrodibenzo[b,d]oxepine-3-carboxamide] registered an IC50 of under 0.1 µM.

Compound `O=C1CC[C@@]2(Cc3ccccc3)c3ccc(O)cc3CCC[C@H]2C1.O=C1CC[C@]2(Cc3ccccc3)c3ccc(O)cc3CCC[C@@H]2C1` [Example 4, (4aS,11bS)-11b-Benzyl-9-hydroxy-1,2,4,4a,5,6,7,11b-octahydro-dibenzo[a,c]cyclohepten-3-one; compound with (4aR,11bR)-11b-benzyl-9-hydroxy-1,2,4,4a,5,6,7,11b-octahydro-dibenzo[a,c]cyclohepten-3-one] yielded a half-maximal inhibitory concentration (IC50) of 0.1 to 1 µM.

`Cc1ncccc1NC(=O)c1ccc2c(c1)C(=O)NC[C@H]1CC(O)(C(F)(F)F)CC[C@@]21Cc1ccccc1` (stereo partly drawn) [Example 22, (4aS,11bS)-11b-benzyl-3-hydroxy-N-(2-methylpyridin-3-yl)-7-oxo-3-(trifluoromethyl)-2,3,4,4a,5,6,7,11b-octahydro-1H-dibenzo[c,e]azepine-9-carboxamide] returned an IC50 of over 10 µM.

Turning to `CCC[C@@]1(O)CC[C@@]2(CC)c3ccc(C(=O)Nc4ccccc4N)cc3CCC[C@H]2C1` (racemic) [Example 145, (7aS,9R,11aR)-11a-Ethyl-9-hydroxy-9-propyl-6,7,7a,8,9,10,11,11a-octahydro-5H-dibenzo[a,c]cycloheptene-3-carboxylic acid (2-amino-phenyl)-amide; compound with (7aR,9S,11aS)-11a-ethyl-9-hydroxy-9-propyl-6,7,7a,8,9,10,11,11a-octahydro-5H-dibenzo[a,c]cycloheptene-3-carboxylic acid (2-amino-phenyl)-amide], the IC50 is under 0.1 µM.

Regarding `CCCOC[C@]1(O)CC[C@]2(Cc3ccccc3)c3ccc(C(=O)Nc4cccnc4C)cc3CCC[C@@H]2C1` [Example 99], the IC50 was 1 to 10 µM.

`CC[C@@]12CC[C@](O)(COCC(F)(F)F)C[C@@H]1CCCc1cc(C(=O)Nc3cccnc3C)ccc12` (racemic) [Example 92, (7aS,9R,11aR)-11a-ethyl-9-hydroxy-9-(2,2,2-trifluoro-ethoxymethyl)-6,7,7a,8,9,10,11,11a-octahydro-5H-dibenzo[a,c]cycloheptene-3-carboxylic acid (2-methyl-pyridin-3-yl)-amide: compound with (7aR,9S,11aS)-11a-ethyl-9-hydroxy-9-(2,2,2-trifluoro-ethoxymethyl)-6,7,7a,8,9,10,11,11a-octahydro-5H-dibenzo[a,c]cycloheptene-3-carboxylic acid (2-methyl-pyridin-3-yl)-amide]: the IC50 is under 0.1 µM.

Turning to `Cc1ncccc1NC(=O)c1ccc2c(c1)NC(=O)C[C@@H]1C[C@@](O)(C(F)(F)F)CC[C@@]21Cc1ccccc1` [Example 20, (7aS,9R,11aS)-11a-Benzyl-9-hydroxy-N-(2-methylpyridin-3-yl)-6-oxo-9-(trifluoromethyl)-6,7,7a,8,9,10,11,11a-octahydro-5H-dibenzo[b,d]azepine-3-carboxamide], the half-maximal inhibitory concentration (IC50) lay within 0.1 to 1 µM.
